According to ChEMBL document CHEMBL1201862, “PubChem BioAssay data set” (2004):
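Exposure lasted 48 hours, with cells grown in 96-well plates and compounds tested at five concentrations. Here, GI50 denotes the concentration required for 50% inhibition of growth.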 Calls of active or inactive are those of the source. No stated cut-off is given here; in the data, active = GI50 up to about 1.1 µM and inactive = higher.

How the values were obtained:
Experiment in all cases: inhibition of tumour cell growth, NCI panel, 48 h
SN12C = tested on: SN12C
SNB-75 = tested on: SNB-75
SF-539 = tested on: SF-539
HOP-62 = tested on: HOP-62
TK-10 = tested on: TK-10
K562 = tested on: K562
SR = tested on: SR
SK-MEL-28 = tested on: SK-MEL-28
M14 = tested on: M14
EKVX = tested on: EKVX
SK-MEL-2 = tested on: SK-MEL-2
NCI-H226 = tested on: NCI-H226
HOP-92 = tested on: HOP-92
SK-MEL-5 = tested on: SK-MEL-5
OVCAR-8 = tested on: OVCAR-8
OVCAR-3 = tested on: OVCAR-3
SK-OV-3 = tested on: SK-OV-3
ACHN = tested on: ACHN
KM12 = tested on: KM12
A498 = tested on: A498

Row | SMILES | GI50 (SN12C) | GI50 (SNB-75) | GI50 (SF-539) | GI50 (HOP-62) | GI50 (TK-10) | GI50 (K562) | GI50 (SR) | GI50 (SK-MEL-28) | GI50 (M14) | GI50 (EKVX) | GI50 (SK-MEL-2) | GI50 (NCI-H226) | GI50 (HOP-92) | GI50 (SK-MEL-5) | GI50 (OVCAR-8) | GI50 (OVCAR-3) | GI50 (SK-OV-3) | GI50 (ACHN) | GI50 (KM12) | GI50 (A498)
1 | COc1ccc(-c2cn3ccsc3n2)cc1 | > 100 µM (inactive) | > 100 µM (inactive) | 75.9 µM (inactive) | > 100 µM (inactive) | > 100 µM (inactive) | 55.2 µM (inactive) | 15.9 µM (inactive) | > 100 µM (inactive) | > 100 µM (inactive) | > 100 µM (inactive) | > 100 µM (inactive) | > 100 µM (inactive) | > 100 µM (inactive) | > 100 µM (inactive) | > 100 µM (inactive) | > 100 µM (inactive) | > 100 µM (inactive) | > 100 µM (inactive) | > 100 µM (inactive) | –
2 | O=C1C(NS(=O)(=O)c2ccccc2)=C(N(Cc2ccccc2)Cc2ccccc2)C(=O)c2ccccc21 | 41.5 µM (inactive) | 70.8 µM (inactive) | 67.5 µM (inactive) | 41 µM (inactive) | 66.8 µM (inactive) | 31.1 µM (inactive) | 22.7 µM (inactive) | 40.9 µM (inactive) | 43.7 µM (inactive) | 53.7 µM (inactive) | 20.8 µM (inactive) | 64.7 µM (inactive) | 36.3 µM (inactive) | 80.4 µM (inactive) | 70.3 µM (inactive) | 30.4 µM (inactive) | 39.9 µM (inactive) | 44.1 µM (inactive) | > 100 µM (inactive) | –
3 | O=C(NCc1cccc2ccccc12)N/N=C\c1ccc(Cl)cc1 | > 100 µM (inactive) | 62.8 µM (inactive) | > 100 µM (inactive) | > 100 µM (inactive) | > 100 µM (inactive) | > 100 µM (inactive) | > 100 µM (inactive) | > 100 µM (inactive) | 74.5 µM (inactive) | 36.1 µM (inactive) | > 100 µM (inactive) | > 100 µM (inactive) | 74.8 µM (inactive) | 46 µM (inactive) | > 100 µM (inactive) | > 100 µM (inactive) | – | > 100 µM (inactive) | 49 µM (inactive) | –
4 | Cc1nnc2n(c1=O)CCCN2C | > 100 µM (inactive) | > 100 µM (inactive) | > 100 µM (inactive) | > 100 µM (inactive) | > 100 µM (inactive) | > 100 µM (inactive) | > 100 µM (inactive) | > 100 µM (inactive) | > 100 µM (inactive) | > 100 µM (inactive) | > 100 µM (inactive) | > 100 µM (inactive) | > 100 µM (inactive) | > 100 µM (inactive) | > 100 µM (inactive) | > 100 µM (inactive) | > 100 µM (inactive) | > 100 µM (inactive) | > 100 µM (inactive) | –
5 | COC(=O)CCC(=O)C(C#N)c1ccc(Cl)cc1Cl (stereo not drawn) | > 100 µM (inactive) | > 100 µM (inactive) | > 100 µM (inactive) | – | > 100 µM (inactive) | > 100 µM (inactive) | > 100 µM (inactive) | > 100 µM (inactive) | > 100 µM (inactive) | > 100 µM (inactive) | > 100 µM (inactive) | > 100 µM (inactive) | > 100 µM (inactive) | – | – | > 100 µM (inactive) | > 100 µM (inactive) | > 100 µM (inactive) | > 100 µM (inactive) | –
6 | CC(C)OP(=O)(OC(C)C)/C(N)=N/Nc1ccc([N+](=O)[O-])cc1 | > 100 µM (inactive) | 81.7 µM (inactive) | > 100 µM (inactive) | > 100 µM (inactive) | 27 µM (inactive) | 77.6 µM (inactive) | > 100 µM (inactive) | > 100 µM (inactive) | > 100 µM (inactive) | 25.4 µM (inactive) | > 100 µM (inactive) | 53 µM (inactive) | 46.7 µM (inactive) | 60.1 µM (inactive) | > 100 µM (inactive) | > 100 µM (inactive) | – | 69.8 µM (inactive) | > 100 µM (inactive) | –
7 | O=[N+]([O-])c1ccc2nc3n(c2c1)C(c1c(F)cccc1F)SC3 (stereo not drawn) | > 100 µM (inactive) | – | – | > 100 µM (inactive) | > 100 µM (inactive) | > 10 µM (inactive) | 92.3 µM (inactive) | > 100 µM (inactive) | – | > 100 µM (inactive) | – | > 100 µM (inactive) | – | > 10 µM (inactive) | > 10 µM (inactive) | > 100 µM (inactive) | > 100 µM (inactive) | > 100 µM (inactive) | > 100 µM (inactive) | > 100 µM (inactive)
8 | CN1C(c2ccccc2)=CC(=O)C(O)=C(c2ccccc2)S1(=O)=O | > 100 µM (inactive) | > 100 µM (inactive) | > 100 µM (inactive) | > 100 µM (inactive) | > 100 µM (inactive) | > 100 µM (inactive) | > 100 µM (inactive) | > 100 µM (inactive) | > 100 µM (inactive) | > 100 µM (inactive) | > 100 µM (inactive) | > 100 µM (inactive) | > 100 µM (inactive) | > 100 µM (inactive) | > 100 µM (inactive) | > 100 µM (inactive) | > 100 µM (inactive) | > 100 µM (inactive) | > 100 µM (inactive) | –
9 | Nc1ccc2c(O)cc(O)nc2n1 | > 100 µM (inactive) | > 100 µM (inactive) | > 100 µM (inactive) | – | > 100 µM (inactive) | > 100 µM (inactive) | > 100 µM (inactive) | > 100 µM (inactive) | > 100 µM (inactive) | > 100 µM (inactive) | > 100 µM (inactive) | > 100 µM (inactive) | > 100 µM (inactive) | > 100 µM (inactive) | > 100 µM (inactive) | – | > 100 µM (inactive) | > 100 µM (inactive) | > 100 µM (inactive) | –
10 | COc1cccc(-c2nc(-c3cnccn3)n(C/C=C/c3ccccc3)n2)c1 | > 10 µM (inactive) | 6.32 µM (inactive) | > 10 µM (inactive) | – | > 10 µM (inactive) | > 10 µM (inactive) | > 10 µM (inactive) | – | > 10 µM (inactive) | > 10 µM (inactive) | > 10 µM (inactive) | > 10 µM (inactive) | 1.86 µM (inactive) | – | > 10 µM (inactive) | > 10 µM (inactive) | – | > 10 µM (inactive) | > 10 µM (inactive) | –
11 | CC(=O)O[C@H]1C(=O)[C@@]2(C)[C@H]([C@H](OC(=O)c3ccccc3)[C@]3(O)C[C@H](OC(=O)[C@H](O)[C@@H](NC(=O)C(C)(C)C)c4ccccc4)C(C)=C1C3(C)C)[C@]1(OC(C)=O)CO[C@@H]1C[C@@H]2O | 0.0807 µM (active) | 0.0555 µM (active) | 0.0585 µM (active) | 0.215 µM (active) | 0.38 µM (active) | 0.0516 µM (active) | 0.0405 µM (active) | 0.105 µM (active) | 0.0982 µM (active) | 1.87 µM (inactive) | 0.0736 µM (active) | 0.428 µM (active) | 0.535 µM (active) | 0.0435 µM (active) | 0.0668 µM (active) | – | 0.0177 µM (active) | 3.32 µM (inactive) | 0.0221 µM (active) | –
